Where “and” joins values, the source holds several entries; their conditions need not be identical. Equal values may be shown once.
Tests used:
Type in all cases: functional
Cavia porcellus [1] = organism: Cavia porcellus; assay: Ability of MDP to inhibit migration of cultured guinea pig peritoneal exudate macrophages at 0.01 ug/mL concentration in expt 1
Cavia porcellus [2] = organism: Cavia porcellus; assay: Ability of MDP to inhibit migration of cultured guinea pig peritoneal exudate macrophages at 0.01 ug/mL concentration in expt 2
Cavia porcellus [3] = organism: Cavia porcellus; assay: Ability of MDP to inhibit migration of cultured guinea pig peritoneal exudate macrophages at 0.01 ug/mL concentration in expt 3
Cavia porcellus [4] = organism: Cavia porcellus; assay: Ability of MDP to inhibit migration of cultured guinea pig peritoneal exudate macrophages at 0.1 ug/mL concentration in expt 1
Cavia porcellus [5] = organism: Cavia porcellus; assay: Ability of MDP to inhibit migration of cultured guinea pig peritoneal exudate macrophages at 0.1 ug/mL concentration in expt 2
Cavia porcellus [6] = organism: Cavia porcellus; assay: Ability of MDP to inhibit migration of cultured guinea pig peritoneal exudate macrophages at 0.1 ug/mL concentration in expt 3
Cavia porcellus [7] = organism: Cavia porcellus; assay: Ability of MDP to inhibit migration of cultured guinea pig peritoneal exudate macrophages at 0.1 ug/mL concentration in expt 4
Cavia porcellus [8] = organism: Cavia porcellus; assay: Ability of MDP to inhibit migration of cultured guinea pig peritoneal exudate macrophages at 0.1 ug/mL concentration in expt 5
Cavia porcellus [9] = organism: Cavia porcellus; assay: Ability of MDP to inhibit migration of cultured guinea pig peritoneal exudate macrophages at 1 ug/mL concentration in expt 1
Cavia porcellus [10] = organism: Cavia porcellus; assay: Ability of MDP to inhibit migration of cultured guinea pig peritoneal exudate macrophages at 1 ug/mL concentration in expt 2
Cavia porcellus [11] = organism: Cavia porcellus; assay: Ability of MDP to inhibit migration of cultured guinea pig peritoneal exudate macrophages at 1 ug/mL concentration in expt 3
Cavia porcellus [12] = organism: Cavia porcellus; assay: Ability of MDP to inhibit migration of cultured guinea pig peritoneal exudate macrophages at 1 ug/mL concentration in expt 4
Cavia porcellus [13] = organism: Cavia porcellus; assay: Ability of MDP to inhibit migration of cultured guinea pig peritoneal exudate macrophages at 10 ug/mL concentration in expt 4
Cavia porcellus [14] = organism: Cavia porcellus; assay: Ability of MDP to inhibit migration of cultured guinea pig peritoneal exudate macrophages at 10 ug/mL concentration in expt 5
Cavia porcellus [15] = organism: Cavia porcellus; assay: Ability of MDP to induce spreading of cultured guinea pig peritoneal exudate macrophages at 0.01 ug/mL concentration
Cavia porcellus [16] = organism: Cavia porcellus; assay: Ability of MDP to induce spreading of cultured guinea pig peritoneal exudate macrophages at 0.1 ug/mL concentration
Cavia porcellus [17] = organism: Cavia porcellus; assay: Ability of MDP to induce spreading of cultured guinea pig peritoneal exudate macrophages at 1 ug/mL concentration
Cavia porcellus [18] = organism: Cavia porcellus; assay: Ability of MDP to induce spreading of cultured guinea pig peritoneal exudate macrophages at 10 ug/mL concentration
Cavia porcellus [19] = organism: Cavia porcellus; assay: Ability of MDP to inhibit migration of cultured guinea pig peritoneal exudate macrophages at 1 ug/mL concentration in expt 5
Cavia porcellus [20] = organism: Cavia porcellus; assay: Ability of P-MDP to inhibit migration of cultured guinea pig peritoneal exudate macrophages at 1 ug/mL concentration in expt 3
Cavia porcellus [21] = organism: Cavia porcellus; assay: Ability of P-MDP to inhibit migration of cultured guinea pig peritoneal exudate macrophages at 1 ug/mL concentration in expt 4
Cavia porcellus [22] = organism: Cavia porcellus; assay: Ability of P-MDP to inhibit migration of cultured guinea pig peritoneal exudate macrophages at 10 ug/mL concentration in expt 4
Cavia porcellus [23] = organism: Cavia porcellus; assay: Ability of P-MDP to inhibit migration of cultured guinea pig peritoneal exudate macrophages at 0.01 ug/mL concentration in expt 2
Cavia porcellus [24] = organism: Cavia porcellus; assay: Ability of P-MDP to inhibit migration of cultured guinea pig peritoneal exudate macrophages at 0.01 ug/mL concentration in expt 3
Cavia porcellus [25] = organism: Cavia porcellus; assay: Ability of P-MDP to inhibit migration of cultured guinea pig peritoneal exudate macrophages at 0.1 ug/mL concentration in expt 3
Cavia porcellus [26] = organism: Cavia porcellus; assay: Ability of I-MDP to inhibit migration of cultured guinea pig peritoneal exudate macrophages at 0.1 ug/mL concentration in expt 1
Cavia porcellus [27] = organism: Cavia porcellus; assay: Ability of I-MDP to inhibit migration of cultured guinea pig peritoneal exudate macrophages at 0.1 ug/mL concentration in expt 2
Cavia porcellus [28] = organism: Cavia porcellus; assay: Ability of I-MDP to inhibit migration of cultured guinea pig peritoneal exudate macrophages at 1 ug/mL concentration in expt 1
Cavia porcellus [29] = organism: Cavia porcellus; assay: Ability of I-MDP to inhibit migration of cultured guinea pig peritoneal exudate macrophages at 1 ug/mL concentration in expt 2
Cavia porcellus [30] = organism: Cavia porcellus; assay: Ability of I-MDP to inhibit migration of cultured guinea pig peritoneal exudate macrophages at 10 ug/mL concentration in expt 2
Cavia porcellus [31] = organism: Cavia porcellus; assay: Ability of L,L-MDP to inhibit migration of cultured guinea pig peritoneal exudate macrophages at 0.01 ug/mL concentration in expt 4
Cavia porcellus [32] = organism: Cavia porcellus; assay: Ability of L,L-MDP to inhibit migration of cultured guinea pig peritoneal exudate macrophages at 0.1 ug/mL concentration in expt 4
Cavia porcellus [33] = organism: Cavia porcellus; assay: Ability of L,L-MDP to inhibit migration of cultured guinea pig peritoneal exudate macrophages at 1 ug/mL concentration in expt 4
Cavia porcellus [34] = organism: Cavia porcellus; assay: Ability of L,L-MDP to inhibit migration of cultured guinea pig peritoneal exudate macrophages at 10 ug/mL concentration in expt 5
Cavia porcellus [35] = organism: Cavia porcellus; assay: Ability of P-MDP to induce spreading of cultured guinea pig peritoneal exudate macrophages at 1 ug/mL concentration
Cavia porcellus [36] = organism: Cavia porcellus; assay: Ability of P-MDP to induce spreading of cultured guinea pig peritoneal exudate macrophages at 10 ug/mL concentration
Cavia porcellus [37] = organism: Cavia porcellus; assay: Ability of I-MDP to induce spreading of cultured guinea pig peritoneal exudate macrophages at 0.01 ug/mL concentration
Cavia porcellus [38] = organism: Cavia porcellus; assay: Ability of I-MDP to induce spreading of cultured guinea pig peritoneal exudate macrophages at 0.1 ug/mL concentration
Cavia porcellus [39] = organism: Cavia porcellus; assay: Ability of I-MDP to induce spreading of cultured guinea pig peritoneal exudate macrophages at 1 ug/mL concentration
Cavia porcellus [40] = organism: Cavia porcellus; assay: Ability of I-MDP to induce spreading of cultured guinea pig peritoneal exudate macrophages at 10 ug/mL concentration
Cavia porcellus [41] = organism: Cavia porcellus; assay: Ability of L,L-MDP to induce spreading of cultured guinea pig peritoneal exudate macrophages at 0.01 ug/mL concentration
Cavia porcellus [42] = organism: Cavia porcellus; assay: Ability of L,L-MDP to induce spreading of cultured guinea pig peritoneal exudate macrophages at 0.1 ug/mL concentration
Cavia porcellus [43] = organism: Cavia porcellus; assay: Ability of L,L-MDP to induce spreading of cultured guinea pig peritoneal exudate macrophages at 1 ug/mL concentration
Cavia porcellus [44] = organism: Cavia porcellus; assay: Ability of L,L-MDP to induce spreading of cultured guinea pig peritoneal exudate macrophages at 10 ug/mL concentration
Cavia porcellus [45] = organism: Cavia porcellus; assay: Ability of P-MDP to induce spreading of cultured guinea pig peritoneal exudate macrophages at 0.01 ug/mL concentration
Cavia porcellus [46] = organism: Cavia porcellus; assay: Ability of P-MDP to induce spreading of cultured guinea pig peritoneal exudate macrophages at 0.1 ug/mL concentration
Cavia porcellus [47] = organism: Cavia porcellus; assay: Ability of I-MDP to inhibit migration of cultured guinea pig peritoneal exudate macrophages at 0.01 ug/mL concentration in expt 1

SMILES: CC(=O)N[C@@H]1[C@@H](O[C@H](C)C(=O)N[C@@H](C)C(=O)N[C@H](CCC(=O)[O-])C(N)=O)[C@H](O)[C@@H](COc2nc(O)nc(N=C3C=CC(=C4c5ccc(O)cc5Oc5cc(O)ccc54)C(C(=O)[O-])=C3)n2)O[C@H]1O.[Na+].[Na+]
- Migration index (Cavia porcellus [1]): 73
- Migration index (Cavia porcellus [2]): 84
- Migration index (Cavia porcellus [3]): 62
- Migration index (Cavia porcellus [4]): 102
- Migration index (Cavia porcellus [5]): 52
- Migration index (Cavia porcellus [6]): 27
- Migration index (Cavia porcellus [7]): 51
- Migration index (Cavia porcellus [8]): 74
- Migration index (Cavia porcellus [9]): 63
- Migration index (Cavia porcellus [10]): 60
- Migration index (Cavia porcellus [11]): 18
- Migration index (Cavia porcellus [12]): 49
- Migration index (Cavia porcellus [13]): 53
- Migration index (Cavia porcellus [14]): 74
- Spreading (Cavia porcellus [15]): 45%
- Spreading (Cavia porcellus [16]): 68.5%
- Spreading (Cavia porcellus [17]): 74.3%
- Spreading (Cavia porcellus [18]): 73.3%
- Migration index (Cavia porcellus [19]): 70

SMILES: CC(=O)N[C@H]1C(O)O[C@H](CO)[C@@H](O)[C@@H]1O[C@H](C)C(=O)N[C@@H](C)C(=O)N[C@H](CCC(=O)O)C(N)=O (some centres not stated) [MURAMYL DIPEPTIDE]
- Migration index (Cavia porcellus [20]): 17 and 34
- Migration index (Cavia porcellus [21]): 62
- Migration index (Cavia porcellus [22]): 52 and 63
- Migration index (Cavia porcellus [23]): 63
- Migration index (Cavia porcellus [24]): 12
- Migration index (Cavia porcellus [25]): 52 and 34 and 26
- Migration index (Cavia porcellus [26]): 68 and 88
- Migration index (Cavia porcellus [27]): 64 and 68
- Migration index (Cavia porcellus [28]): 70 and 114
- Migration index (Cavia porcellus [29]): 61 and 64
- Migration index (Cavia porcellus [30]): 64
- Migration index (Cavia porcellus [31]): 54
- Migration index (Cavia porcellus [32]): 58
- Migration index (Cavia porcellus [33]): 52
- Migration index (Cavia porcellus [34]): 65
- Spreading (Cavia porcellus [35]): 75.5%
- Spreading (Cavia porcellus [36]): 79%
- Spreading (Cavia porcellus [37]): 50%
- Spreading (Cavia porcellus [38]): 72.5%
- Spreading (Cavia porcellus [39]): 73%
- Spreading (Cavia porcellus [40]): 80%
- Spreading (Cavia porcellus [41]): 48%
- Spreading (Cavia porcellus [42]): 56%
- Spreading (Cavia porcellus [43]): 51.5%
- Spreading (Cavia porcellus [44]): 76%
- Spreading (Cavia porcellus [45]): 62.5%
- Spreading (Cavia porcellus [46]): 80%
- Migration index (Cavia porcellus [47]): 119 and 92 and 108

Reference: ChEMBL document CHEMBL1122412, “Synthesis of a biologically active fluorescent muramyl dipeptide congener” (1983)
